One experiment deals with Aspergillus fumigatus. Briefly: Broth microdilution MIC/MEC (Example 1). It is filed as cell-based. Particulars: Aspergillus fumigatus; strain Af293; read-out: MEC against Aspergillus fumigatus (Af293). As for the experimental part: (§1) MICs/minimum effective concentrations (MECs) were determined for each of the novel analogs against the three major human fungal pathogens, A. fumigatus, C. neoformans, and C. albicans. […] Thus, analogs of FK506 and FK520 can tolerate up to 100-fold reduction in antifungal activity and still be considered for in vivo testing. For C. neoformans, MICs were the most uniform and ranged from 0.2 to 2 μg/mL, which is between 4- and 40-fold reduced for antifungal activity.
To assess the antifungal activity against other human fungal pathogens, JH-FK-05 was selected to test against a panel of pathogenic molds and drug-resistant A. fumigatus strains (Table 4). JH-FK-05 registered MECs as low as 1 μg/mL for some of these highly recalcitrant species, such as Mucor circinelloides, Rhizopus oryzae, and pan azole-resistant A. fumigatus (strain F14946).
(§2) In vitro antifungal activities of FK506, FK520, and analogs were assessed in RPMI 1640 (Sigma-Aldrich) for all strains tested. MICs/minimum effective concentrations (MECs) for each drug were measured using modified Clinical and Laboratory Standards Institute (CLSI) M38-A2 and M27-A3 standard in vitro antifungal susceptibility protocols. Broth microdilution assays for MIC/MEC assessment were performed as described previously (see, Juvvadi P R, et al., 2019, Nat Commun 10:4275). All antifungal assays with C. neoformans were performed at 37° C. Antifungal susceptibility testing for C. albicans was performed in the presence of a uniform 1 μg/mL concentration of fluconazole to sensitize the organism to calcineurin inhibition.

In experiment [1] the test system is Cryptococcus neoformans (H99). Briefly: Broth microdilution MIC (Example 1). The class given is cell-based. The following applies: for MIC: Cryptococcus neoformans, 37° C., read-out: MIC against Cryptococcus neoformans (H99). The procedure: as §1, §2
On the technique in general: Dilution methods test growth across graded concentrations, often in twofold steps.

Experiment [2] relates to Candida albicans (SC5314). Briefly: Broth microdilution MIC (Example 1). It is filed as cell-based. The following applies: Candida albicans, SC5314; in the presence of 1 μg/mL fluconazole; read-out: MIC against Candida albicans (SC5314). As for the experimental part:
as §1, §2

The subject of experiment [3] is C. neoformans growth versus IL-2 in murine T cells. Briefly: Therapeutic index score (immunosuppressive fold change to antifungal fold change relative to FK506). The following applies: Table 12, Example 4; FK506 = 1.0. Also noted: species or system Cryptococcus neoformans; mouse. The source says:
To assess the therapeutic potential for these compounds, it was important to develop an approach to score and rank them based on antifungal and immunosuppressive activities. The therapeutic index score (TIscore) is a ratio of the immunosuppressive fold change to the antifungal fold change, with all values relative to the baseline FK506 activity (FIG. 6B). A TIscore of >1.0 indicates an increase in fungal specificity because the fold change of the immunosuppressive reduction is greater than the antifungal activity reduction. As an example, JH-FK-05 is 20-fold reduced for antifungal activity but about 180-fold reduced for immunosuppression. Therefore, the TIscore of JH-FK-05 is 9.1 (TIscore=182/20). The top two analogs were JH-FK-02 (TIscore=9.7) and JH-FK-05 (TIscore=9.1). Due to the similar TIscore, JH-FK-05 was prioritized to advance to animal trials on the merit of more pronounced antifungal activity compared to JH-FK-02.
Based on the in vitro fungal and mammalian calcineurin inhibition data, the panel of FK520 analogs was assessed and ranked. Therapeutic index (TI) scores were used to quantify the effects of structural modification on the compounds (Table 8). Therapeutic index scores were calculated for each analog as the ratio of relative change in immunosuppressive and antifungal activities compared to FK506 as previously utilized (see, I-Toy M J, et at. 2022. mBio 13:e0104922). This ratio of therapeutic benefit and host toxicity, or fungal and mammalian calcineurin inhibition, allowed us to quantify and rank these analogs. […] This is the greatest TI found within the library and allowed us to identify JH-FK-08 as a lead candidate for an in vivo study. Tolerability of JH-FK-08 was assessed by monitoring animal responses to drug dosing across 14 days, including changes in weight, fur condition, and behavior. A maximum dose of 40 mg/kg was tested in once a day dosing, and due to solubility limitations, the tolerability of JH-FK-08 at 60 and 80 mg/kg total daily doses was assessed by dosing two equal doses per day (FIG. 14). […] It should be noted that analogs JH-FK-12 and JH-FK-23 are also promising candidates with respective Tis of 24.7 and 24.5.

In a further experiment the test system is C. neoformans. Briefly: MIC assay (Example 4). The class given is cell-based, Cryptococcus neoformans. Particulars: for MIC: Cryptococcus neoformans. The procedure: Both JH-FK-10 and JH-FK-11 maintained in vitro antifungal activity against C. neoformans with MICs of 0.8 and 1.6 μg/mL, respectively (Table 11).
In vitro antifungal activity of FK506, FK520, and analogs was assessed in RPMI 1640 (Sigma-Aldrich) for all strains tested. Minimum inhibitory concentrations (MIC) for each drug were measured using modified Clinical and Laboratory Standards Institute (CLSI) M38-A2 and M27-A3 standard in vitro antifungal susceptibility protocols. Broth microdilution assays for MIC assessment were performed as previously described. All antifungal assays with C. neoformans were performed at 37° C.

Experiment [4] relates to IL-2 expression in primary murine CD4+ T cells. Briefly: In vitro immunosuppressive activity, IL-2 expression (Example 4). It is filed as cell-based, mouse. Particulars: for IC50: Mus musculus, CD4+ T. As for the experimental part: Spleen and lymph nodes were collected from C57BL/6 mice and homogenized through a 40 μm filter. Pan-CD4^+ T cells were enriched using MagniSort Mouse CD4 T cell Kit (eBioscience) according to the manufacturer's protocol. Thereafter, CD4+CD25−CD44lo CD62Lhi naïve T cells were FACS-sorted. The naïve CD4+ T cells were grown in Iscove's Modified Dulbecco's Medium (IMDM) supplemented with glutamine, penicillin, streptomycin, gentamicin, 2-mercaptoethanol, and 10% FBS. Cells were then cultured on anti-hamster IgG coated plates in the presence of hamster anti-CD3 epsilon and anti-CD28 antibodies (BD Biosciences), neutralizing anti-IL-4 antibody (eBioscience), recombinant IL-12 (10 ng/mL), and recombinant IL-2 (50 U/mL) for 72 h. During this period, cells were grown in the presence of 2× serially diluted FK506, FK520, or analog suspended in DMSO for 72 h. During the last 4 h of culture, phorbol 12-myristate 13-acetate (PMA; Sigma), ionomycin (Sigma), and GolgiStop (BD Biosciences) were added to the culture to facilitate detection of intracellular cytokines via flow cytometry.
Live cells were stained with FITC-conjugated anti-CD4 antibody (eBioscience) and Fixable Viability Dye eFluor 506 (eBioscience) on ice, followed by fixation and permeabilization using the Foxp3 Transcription Factor Staining Kit (eBioscience). Intracellular staining was performed at room temperature using PE-conjugated anti-IL-2 antibody (eBioscience), followed by analysis with a BD LSRFortessa X-20 flow cytometer.

The text below walks through data of patent US20260315446A1, “ANTIFUNGAL COMPOUNDS AND USES THEREOF” (priority 2023, published 2026).

In brackets after ≈: the same amount, converted by molar mass. Entries after “also recorded” stand apart in the source; their conditions may differ. Where two headings read alike, the source gives them in different places. A value given as a limit tells only on which side of the number the result lay.

A word on the MIC: it is the lowest concentration found to suppress growth. As for `C=CC[C@@H]1/C=C(\C)C[C@H](C)C[C@H](OC)[C@H]2O[C@@](O)(C(=O)C(=O)N3CCCC[C@H]3C(=O)O[C@H](/C(C)=C/[C@@H]3CC[C@@H](O)[C@H](OC)C3)[C@H](C)[C@@H](O)C/C1=N/NC(C)=O)[C@H](C)C[C@@H]2OC` [JH-FK-01], the minimal effective concentration in the experiment with Aspergillus fumigatus came out at 1 µg/mL. For the same compound, the MIC in experiment [1] was found to be 1 µg/mL (≈ 1.16 µM); in experiment [2], 0.4 µg/mL.
As to `C=CC[C@@H]1/C=C(\C)C[C@H](C)C[C@H](OC)[C@H]2O[C@@](O)(C(=O)C(=O)N3CCCC[C@H]3C(=O)O[C@H](/C(C)=C/[C@@H]3CC[C@@H](O)[C@H](OC)C3)[C@H](C)[C@@H](O)C/C1=N/NC(=O)c1ccccc1)[C@H](C)C[C@@H]2OC` [JH-FK-03], in the experiment on Aspergillus fumigatus, the minimal effective concentration worked out at 1 µg/mL. Also, the MIC in experiment [1] was determined as 1 µg/mL (≈ 1.08 µM); in experiment [2], 0.8 µg/mL.
Consider `C=CC[C@@H]1/C=C(\C)C[C@H](C)C[C@H](OC)[C@H]2O[C@@](O)(C(=O)C(=O)N3CCCC[C@H]3C(=O)O[C@H](/C(C)=C/[C@@H]3CC[C@@H](O)[C@H](OC)C3)[C@H](C)[C@@H](O)CC1=NNC(=O)CN(C)C)[C@H](C)C[C@@H]2OC` [JH-FK-04], for which the minimal effective concentration with Aspergillus fumigatus stood at 2 µg/mL. Besides, the MIC in experiment [1] turned out to be 2 µg/mL (≈ 2.21 µM); in experiment [2], 6.25 µg/mL.
Regarding `CC[C@@H]1/C=C(\C)C[C@H](C)C[C@H](OC)[C@H]2O[C@@](O)(C(=O)C(=O)N3CCCC[C@H]3C(=O)O[C@H](/C(C)=C/[C@@H]3CC[C@@H](O)[C@H](OC)C3)[C@H](C)[C@@H](O)C/C1=N/NC(=O)C(F)(F)F)[C@H](C)C[C@@H]2OC` [JH-FK-07], the minimal effective concentration with Aspergillus fumigatus is 1.25 µg/mL. Besides, the “broad-spectrum antifungal activity / MIC ranking” value in experiment [1] (C. neoformans, C. albicans, A. fumigatus) is “maintained high levels of broad-spectrum antifungal activity across the three species; also recorded: had the lowest MICs for both C. neoformans and C. albicans”. Also, the figures for the MIC in experiment [1] and in experiment [2] were 0.2 µg/mL (≈ 0.222 µM) and 0.2 µg/mL, respectively.
As usually defined, the IC50 is the concentration that gives 50% inhibition. A low value points to inhibition by little substance. As for `CC[C@@H]1/C=C(\C)C(O)[C@H](C)C[C@H](OC)[C@H]2O[C@@](O)(C(=O)C(=O)N3CCCC[C@H]3C(=O)O[C@H](/C(C)=C/[C@@H]3CC[C@@H](O)[C@H](OC)C3)[C@H](C)[C@@H](O)CC1=O)[C@H](C)C[C@@H]2OC` (some centres unmarked) [JH-FK-10], in experiment [3], the “Therapeutic Index Score” value is 3.2. For the same compound, the MIC came out at 0.8 µg/mL (≈ 0.99 µM) with C. neoformans (37° C., Table 11, read-out: C. neoformans MIC) and 0.8 µg/mL (≈ 0.99 µM) in the experiment with C. neoformans (read-out: C. neoformans MIC, 37° C., Table 12). For the same compound, the “immunosuppressive activity” value in experiment [4] is recorded as “detectable immunosuppressive activities”. In addition, 5.7 nM corresponded to half-maximal inhibition in experiment [4] (Table 12) (IC50).
As to `CC[C@@H]1/C=C(\C)C(O)[C@H](C)C[C@H](OC)[C@H]2O[C@@](O)(C(=O)C(=O)N3CCCC[C@H]3C(=O)O[C@H](/C(C)=C/C3CC[C@@H](O)[C@H](OC)C3)[C@H](C)[C@@H](O)C/C1=N/NC(C)=O)[C@H](C)C[C@@H]2OC` (some centres unmarked) [JH-FK-18], the “C. neoformans MIC” value in the experiment with C. neoformans (37° C., Table 13) was >50 µg/mL. In the experiment with C. neoformans (37° C., Table 13, read-out: C. neoformans MIC), the MIC is > 50 µg/mL. In addition, the “antifungal activity” value in the experiment on C. neoformans (up to a maximum concentration of 50 μg/mL) was “no detectable antifungal or immunosuppressive activity; also recorded: no detectable biological activity”. In addition, the “IL-2 production” value in experiment [4] (200 nM) is listed as “no changes in IL-2 production”. Also, the IC50 in experiment [4] (Table 13) is > 200 nM.
